Laboratory results: ChEMBL document CHEMBL1201862, “PubChem BioAssay data set” (2004)
Calls of active or inactive are those of the source.

Columns and labels:
[1] = microbe, parasite or virus in culture; type: functional; conditions: Mycobacterium tuberculosis
INS1 = assay: INS-1E survival protection against cytokine death – cell-based, luminescence, retest, dose response (AID 449756); type: functional; conditions: Rattus norvegicus;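 further: cell death triggered by IL-1 beta plus TNF-alpha plus IFN-gamma mixture; protective hits raise ATP signal compared with cytokine alone wells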
[2] = target: Botulinum neurotoxin type A (Clostridium botulinum (strain Hall / ATCC 3502 / NCTC 13319 / Type A), UniProt P0DPI1); assay: High-throughput multiplex microsphere dose response for inhibitors of toxin protease, specifically Botulinum neurotoxin light chain A protease, compounds from Cherry Pick 01.; type: functional; conditions: read-out: EC50_MICROM
[3] = target: T1, High affinity choline transporter 1 (Homo sapiens, UniProt Q9GZV3); assay: human choline transporter potentiators, potency – cell-based, 10-point CRC, membrane potential dye, dose response (AID 602376); type: functional
T1 sequence (Q9GZV3 whole entry): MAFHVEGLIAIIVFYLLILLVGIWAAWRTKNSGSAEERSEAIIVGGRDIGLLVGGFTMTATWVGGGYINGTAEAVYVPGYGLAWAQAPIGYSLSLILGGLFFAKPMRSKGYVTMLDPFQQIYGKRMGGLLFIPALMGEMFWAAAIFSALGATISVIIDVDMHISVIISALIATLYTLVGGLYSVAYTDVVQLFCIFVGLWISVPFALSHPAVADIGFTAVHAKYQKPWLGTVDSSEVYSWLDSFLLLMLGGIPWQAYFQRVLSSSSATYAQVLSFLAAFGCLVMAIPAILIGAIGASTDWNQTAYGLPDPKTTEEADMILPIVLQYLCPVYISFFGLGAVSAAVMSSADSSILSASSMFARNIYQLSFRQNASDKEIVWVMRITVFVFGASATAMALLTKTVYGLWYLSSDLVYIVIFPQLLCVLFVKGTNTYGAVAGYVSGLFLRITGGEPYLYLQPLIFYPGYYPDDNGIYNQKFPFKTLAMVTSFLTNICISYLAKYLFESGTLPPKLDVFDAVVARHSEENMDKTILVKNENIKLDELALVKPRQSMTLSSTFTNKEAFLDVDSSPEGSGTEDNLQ

[4] = target: Latent membrane protein 1 (Human herpesvirus 4 (strain B95-8), UniProt P03230); assay: LMP1 TES1 pathway selectivity over dsRED control – imaging, HEK293T, dual-color eGFP/dsRED, cherry-picks, selectivity assay for LMP1 NF-kB inhibitor project, dose response (AID 588398); type: functional, cell-based
Genome polyprotein = Genome polyprotein (dengue virus type 2, UniProt P29990); assay: flavivirus cap methylation enzyme inhibition – biochemical, confirmation dose response, primary screen (AID 588689); type: functional
[5] = target: T2, Sentrin-specific protease 8 (Homo sapiens, UniProt Q96LD8); type: functional
T2 sequence (Q96LD8 whole entry): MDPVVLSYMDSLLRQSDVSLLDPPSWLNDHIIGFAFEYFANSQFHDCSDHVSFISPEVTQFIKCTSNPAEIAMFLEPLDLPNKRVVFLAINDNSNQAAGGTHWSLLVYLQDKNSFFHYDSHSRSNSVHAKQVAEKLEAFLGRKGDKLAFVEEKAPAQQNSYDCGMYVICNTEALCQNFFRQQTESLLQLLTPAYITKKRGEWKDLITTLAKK

[6] = target: T2, Sentrin-specific protease 8; type: functional; remark: listed apart in the source
[7] = bead-based luminescence quenchers, dual-tagged ARNT – biochemical, AlphaScreen, cherry-pick, artefact control for ARNT-TACC3 interaction inhibitor project, dose response (AID 651705); type: functional;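 further: AlphaScreen bead proximity signal that flags compounds interfering with the detection technology; potency reflects signal decrease which marks the compound as an assay artifact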
Caspase-3 = target: T3, Caspase-3 (Homo sapiens, UniProt P42574); assay: Dose-response confirmation of uHTS inhibitor hits of Sentrin-Specific Protease 8 in a Caspase-3 Fluorescence assay.; type: functional
T3 sequence (P42574 whole entry): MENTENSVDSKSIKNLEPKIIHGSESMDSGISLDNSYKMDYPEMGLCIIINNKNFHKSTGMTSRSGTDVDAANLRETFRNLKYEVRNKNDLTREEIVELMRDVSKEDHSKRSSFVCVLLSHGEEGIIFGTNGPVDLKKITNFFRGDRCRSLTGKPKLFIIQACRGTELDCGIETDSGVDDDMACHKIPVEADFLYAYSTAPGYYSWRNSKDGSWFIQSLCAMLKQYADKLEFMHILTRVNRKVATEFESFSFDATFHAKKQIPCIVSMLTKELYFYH

[8] = target: T4, DNA repair protein RAD52 homolog (Homo sapiens, UniProt P43351); type: functional, biochemical
T4 sequence (P43351 whole entry): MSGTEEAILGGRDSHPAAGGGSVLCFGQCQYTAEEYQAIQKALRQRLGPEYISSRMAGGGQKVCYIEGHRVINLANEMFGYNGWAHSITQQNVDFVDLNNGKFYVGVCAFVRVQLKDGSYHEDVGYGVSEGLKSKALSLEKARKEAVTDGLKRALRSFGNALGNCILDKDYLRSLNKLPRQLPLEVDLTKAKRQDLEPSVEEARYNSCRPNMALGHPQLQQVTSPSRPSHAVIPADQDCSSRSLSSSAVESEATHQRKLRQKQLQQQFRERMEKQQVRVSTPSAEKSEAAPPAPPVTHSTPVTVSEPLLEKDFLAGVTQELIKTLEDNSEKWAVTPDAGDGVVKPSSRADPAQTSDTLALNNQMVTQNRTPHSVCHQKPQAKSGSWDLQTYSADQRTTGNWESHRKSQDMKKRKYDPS

[9] = viability loss in THP-1 monocytes – THP-1 cells, cytotoxicity control for Vif-APOBEC3G degradation inhibitor project, dose response (AID 1117359); type: functional; conditions: THP-1
[10] = target: Glutathione-S-transferase (Schistosoma japonicum, UniProt Q26513); assay: GST-antibody interaction or FRET quenching – biochemical, TR-FRET, artefact control for Vif-APOBEC3G degradation inhibitor project, dose response (AID 1117362); type: functional
[11] = target: Cyclin-dependent kinase 2 (Homo sapiens, UniProt P24941); type: functional;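 further: CDK2 measured as one member of a broad kinome profiling panel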
[12] = target: Serine/threonine-protein kinase pim-1 (Homo sapiens, UniProt P11309); type: functional
[13] = target: Cell division cycle 7-related protein kinase (Homo sapiens, UniProt O00311); type: functional;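 further: value obtained from a kinome-wide kinase panel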
[14] = target: Homeodomain-interacting protein kinase 2 (Homo sapiens, UniProt Q9H2X6); type: functional;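 further: measured within a kinome-wide kinase profiling panel, HIPK2 being one panel member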
[15] = target: Interleukin-1 receptor-associated kinase 4 (Homo sapiens, UniProt Q9NWZ3); type: functional
[16] = target: Glycogen synthase kinase-3 beta (Homo sapiens, UniProt P49841); type: functional;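 further: value comes from a broad kinome profiling panel, with GSK3B as the panel member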
[17] = target: cAMP-dependent protein kinase catalytic subunit alpha (Homo sapiens, UniProt P17612); type: functional
[18] = target: Dual specificity protein kinase CLK4 (Homo sapiens, UniProt Q9HAZ1); type: functional
[19] = target: Mitogen-activated protein kinase kinase kinase kinase 4 (Homo sapiens, UniProt O95819); type: functional
Mitogen-activated protein kinase kinase kinase kinase 4, sequence (O95819 whole entry): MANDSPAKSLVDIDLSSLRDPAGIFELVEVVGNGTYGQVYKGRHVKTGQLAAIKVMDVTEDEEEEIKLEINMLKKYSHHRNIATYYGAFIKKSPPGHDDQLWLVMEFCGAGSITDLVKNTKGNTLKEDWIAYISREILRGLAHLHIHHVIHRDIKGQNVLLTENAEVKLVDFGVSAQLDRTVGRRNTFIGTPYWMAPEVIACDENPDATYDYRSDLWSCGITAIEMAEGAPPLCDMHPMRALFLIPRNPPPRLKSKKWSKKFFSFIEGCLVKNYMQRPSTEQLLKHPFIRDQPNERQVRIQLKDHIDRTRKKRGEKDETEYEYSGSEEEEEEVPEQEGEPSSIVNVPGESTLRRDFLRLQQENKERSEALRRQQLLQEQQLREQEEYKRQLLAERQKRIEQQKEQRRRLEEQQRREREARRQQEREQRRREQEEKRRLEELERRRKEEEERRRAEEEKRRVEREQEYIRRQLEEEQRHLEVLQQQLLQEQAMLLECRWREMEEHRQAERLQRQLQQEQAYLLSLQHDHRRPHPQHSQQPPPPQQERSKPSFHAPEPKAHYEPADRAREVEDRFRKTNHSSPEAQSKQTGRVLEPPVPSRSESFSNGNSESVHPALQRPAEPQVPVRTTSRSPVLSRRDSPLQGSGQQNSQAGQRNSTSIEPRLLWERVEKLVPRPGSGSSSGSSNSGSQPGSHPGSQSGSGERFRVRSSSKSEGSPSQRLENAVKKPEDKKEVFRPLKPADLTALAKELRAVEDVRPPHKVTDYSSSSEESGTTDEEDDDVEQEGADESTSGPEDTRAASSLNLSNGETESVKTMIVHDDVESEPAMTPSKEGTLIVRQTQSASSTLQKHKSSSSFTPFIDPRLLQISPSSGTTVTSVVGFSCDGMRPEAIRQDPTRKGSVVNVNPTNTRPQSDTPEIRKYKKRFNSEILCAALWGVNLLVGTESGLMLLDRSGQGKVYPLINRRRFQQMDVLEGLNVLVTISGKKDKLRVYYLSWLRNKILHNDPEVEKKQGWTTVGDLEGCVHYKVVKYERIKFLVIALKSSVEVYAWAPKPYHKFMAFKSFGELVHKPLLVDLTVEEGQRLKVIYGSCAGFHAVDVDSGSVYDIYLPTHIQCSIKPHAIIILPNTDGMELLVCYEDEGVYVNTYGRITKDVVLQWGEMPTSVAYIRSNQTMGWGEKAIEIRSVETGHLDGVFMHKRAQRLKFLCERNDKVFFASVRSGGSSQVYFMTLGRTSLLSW

Genome polyprotein, sequence (P29990 2492-3391 limits assumed): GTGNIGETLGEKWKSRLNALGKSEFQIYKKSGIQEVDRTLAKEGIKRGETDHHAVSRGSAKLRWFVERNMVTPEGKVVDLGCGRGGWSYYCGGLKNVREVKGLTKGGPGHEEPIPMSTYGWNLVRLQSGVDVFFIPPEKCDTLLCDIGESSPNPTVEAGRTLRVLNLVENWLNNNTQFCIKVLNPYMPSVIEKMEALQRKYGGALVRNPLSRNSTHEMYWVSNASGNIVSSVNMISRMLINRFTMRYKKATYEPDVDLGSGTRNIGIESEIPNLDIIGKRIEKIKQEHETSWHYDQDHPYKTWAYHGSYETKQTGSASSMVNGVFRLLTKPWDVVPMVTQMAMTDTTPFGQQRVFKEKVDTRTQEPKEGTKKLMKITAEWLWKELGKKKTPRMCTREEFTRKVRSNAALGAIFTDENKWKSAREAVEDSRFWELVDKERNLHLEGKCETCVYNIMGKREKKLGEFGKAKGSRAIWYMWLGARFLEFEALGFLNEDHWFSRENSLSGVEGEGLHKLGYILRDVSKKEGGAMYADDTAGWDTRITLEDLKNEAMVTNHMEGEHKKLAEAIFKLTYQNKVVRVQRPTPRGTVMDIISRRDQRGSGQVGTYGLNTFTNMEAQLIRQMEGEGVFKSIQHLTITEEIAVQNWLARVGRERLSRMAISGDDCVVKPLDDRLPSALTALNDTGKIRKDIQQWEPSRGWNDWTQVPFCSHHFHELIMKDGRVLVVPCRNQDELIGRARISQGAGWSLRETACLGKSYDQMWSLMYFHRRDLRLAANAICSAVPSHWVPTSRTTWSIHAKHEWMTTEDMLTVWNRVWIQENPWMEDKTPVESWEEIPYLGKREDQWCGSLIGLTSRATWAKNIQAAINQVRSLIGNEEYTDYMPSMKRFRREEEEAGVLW
Dual specificity protein kinase CLK4, sequence (Q9HAZ1 whole entry): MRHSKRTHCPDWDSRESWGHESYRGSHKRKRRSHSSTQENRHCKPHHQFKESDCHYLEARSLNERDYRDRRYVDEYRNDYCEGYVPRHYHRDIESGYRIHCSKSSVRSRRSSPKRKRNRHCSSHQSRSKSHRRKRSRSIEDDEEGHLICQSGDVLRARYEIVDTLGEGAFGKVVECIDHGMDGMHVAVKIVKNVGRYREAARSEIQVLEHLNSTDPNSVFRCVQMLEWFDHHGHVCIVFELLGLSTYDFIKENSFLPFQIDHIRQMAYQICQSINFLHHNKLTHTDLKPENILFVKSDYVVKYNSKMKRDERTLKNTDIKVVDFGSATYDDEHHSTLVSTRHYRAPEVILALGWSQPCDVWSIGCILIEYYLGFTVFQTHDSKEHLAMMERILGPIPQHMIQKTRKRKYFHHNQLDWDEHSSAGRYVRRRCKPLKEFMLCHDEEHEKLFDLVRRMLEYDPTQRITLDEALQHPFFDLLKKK
Cell division cycle 7-related protein kinase, sequence (O00311 whole entry): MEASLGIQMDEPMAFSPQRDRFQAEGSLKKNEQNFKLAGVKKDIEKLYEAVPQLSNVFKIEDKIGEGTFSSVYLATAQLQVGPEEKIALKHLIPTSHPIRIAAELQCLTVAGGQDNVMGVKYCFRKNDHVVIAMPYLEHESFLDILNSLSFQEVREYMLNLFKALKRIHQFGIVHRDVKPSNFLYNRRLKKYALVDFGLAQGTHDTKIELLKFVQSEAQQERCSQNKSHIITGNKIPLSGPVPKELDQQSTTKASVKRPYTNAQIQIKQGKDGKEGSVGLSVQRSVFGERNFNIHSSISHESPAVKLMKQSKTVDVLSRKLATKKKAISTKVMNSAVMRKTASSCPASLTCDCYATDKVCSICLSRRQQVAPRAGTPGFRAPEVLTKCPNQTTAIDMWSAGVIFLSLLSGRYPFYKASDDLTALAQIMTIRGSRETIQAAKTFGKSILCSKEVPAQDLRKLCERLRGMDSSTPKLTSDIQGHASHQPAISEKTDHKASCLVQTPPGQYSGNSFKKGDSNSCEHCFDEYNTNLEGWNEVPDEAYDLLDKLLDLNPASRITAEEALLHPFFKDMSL
Botulinum neurotoxin type A, sequence (P0DPI1 2-448 limits assumed): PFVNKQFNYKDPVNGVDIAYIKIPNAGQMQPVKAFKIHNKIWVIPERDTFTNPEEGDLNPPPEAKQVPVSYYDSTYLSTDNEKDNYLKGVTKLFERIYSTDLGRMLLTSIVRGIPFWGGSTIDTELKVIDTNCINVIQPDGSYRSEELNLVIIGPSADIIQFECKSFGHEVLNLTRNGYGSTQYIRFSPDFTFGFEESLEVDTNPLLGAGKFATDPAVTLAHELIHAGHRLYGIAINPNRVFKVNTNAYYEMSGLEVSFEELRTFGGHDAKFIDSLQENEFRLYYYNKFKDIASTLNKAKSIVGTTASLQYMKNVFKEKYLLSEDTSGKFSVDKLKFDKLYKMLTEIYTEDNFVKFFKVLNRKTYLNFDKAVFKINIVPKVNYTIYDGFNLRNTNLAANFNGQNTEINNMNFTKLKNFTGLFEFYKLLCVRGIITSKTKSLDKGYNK
Homeodomain-interacting protein kinase 2, sequence (Q9H2X6 whole entry): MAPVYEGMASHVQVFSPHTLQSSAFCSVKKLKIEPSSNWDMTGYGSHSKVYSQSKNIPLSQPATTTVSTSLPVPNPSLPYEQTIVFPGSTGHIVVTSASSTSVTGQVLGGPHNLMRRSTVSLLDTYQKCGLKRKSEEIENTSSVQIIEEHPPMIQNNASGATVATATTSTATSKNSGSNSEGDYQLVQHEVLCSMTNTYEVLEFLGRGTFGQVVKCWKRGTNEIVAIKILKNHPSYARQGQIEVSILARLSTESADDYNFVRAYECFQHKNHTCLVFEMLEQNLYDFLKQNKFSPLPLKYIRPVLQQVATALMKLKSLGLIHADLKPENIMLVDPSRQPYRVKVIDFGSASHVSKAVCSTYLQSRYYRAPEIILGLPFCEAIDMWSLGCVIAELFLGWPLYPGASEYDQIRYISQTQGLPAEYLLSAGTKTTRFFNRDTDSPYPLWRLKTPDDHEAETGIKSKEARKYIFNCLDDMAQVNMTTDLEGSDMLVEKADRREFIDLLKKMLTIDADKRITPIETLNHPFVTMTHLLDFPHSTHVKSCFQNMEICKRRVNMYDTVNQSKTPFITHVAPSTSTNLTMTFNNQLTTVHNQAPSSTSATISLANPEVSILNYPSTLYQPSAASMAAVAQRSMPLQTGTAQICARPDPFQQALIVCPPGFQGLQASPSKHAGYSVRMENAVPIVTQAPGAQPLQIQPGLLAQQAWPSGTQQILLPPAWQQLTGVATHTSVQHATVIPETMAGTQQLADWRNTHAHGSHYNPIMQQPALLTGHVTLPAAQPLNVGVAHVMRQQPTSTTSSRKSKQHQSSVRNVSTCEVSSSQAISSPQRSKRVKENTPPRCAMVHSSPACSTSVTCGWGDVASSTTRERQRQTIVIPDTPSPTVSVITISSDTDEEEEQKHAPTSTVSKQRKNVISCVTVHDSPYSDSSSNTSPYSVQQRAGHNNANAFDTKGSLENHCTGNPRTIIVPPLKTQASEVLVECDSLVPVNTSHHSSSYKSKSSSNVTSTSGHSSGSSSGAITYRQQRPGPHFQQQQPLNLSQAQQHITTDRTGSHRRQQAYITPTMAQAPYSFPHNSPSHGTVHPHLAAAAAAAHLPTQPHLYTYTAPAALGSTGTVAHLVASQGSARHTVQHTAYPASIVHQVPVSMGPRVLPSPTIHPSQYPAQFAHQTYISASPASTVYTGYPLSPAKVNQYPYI
Glutathione-S-transferase, sequence (Q26513 whole entry): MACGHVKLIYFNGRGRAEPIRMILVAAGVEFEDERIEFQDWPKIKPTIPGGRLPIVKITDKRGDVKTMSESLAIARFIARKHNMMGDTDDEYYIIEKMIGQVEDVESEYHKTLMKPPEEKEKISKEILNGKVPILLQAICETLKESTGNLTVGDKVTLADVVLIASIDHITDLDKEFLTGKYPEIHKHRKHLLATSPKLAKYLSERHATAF

SMILES: O=c1c(Cl)c2oc3ccccc3nc-2c2ccccc12
- CC50 [1]: > 40 µM (active)
- AC50 (INS1): 2.61 µM (active)
- EC50 [2]: 12.4 µM (active)

SMILES: CCCCCCCCC1=NCCc2c1[nH]c1ccccc21
- EC50 [3]: 13.7 µM (active)

SMILES: COc1cc(NCCCCCCN)c2ncccc2c1OC
- AC50 [4]: 34.4 µM (active)
- IC50 (Genome polyprotein): > 100 µM (active)
- IC50 [5]: 0.208 µM (active)
- IC50 [6]: 0.434 µM (active)
- AC50 [7]: 132 µM (active)
- IC50 (Caspase-3): 4.23 µM (active)
- AC50 [8]: 0.87 µM (active)
- CC50 [9]: > 40 µM (active)
- IC50 [10]: 2.53 µM (active)

SMILES: Cn1cc(-c2ccccc2)c2nc(-c3ccncc3)cc(=O)n21
- Ki [11]: > 7.94 µM (inactive)
- Ki [12]: 2.51 µM (active)
- Ki [13]: 0.0158 µM (active)
- Ki [14]: 0.1 µM (active)
- Ki [15]: > 10 µM (inactive)
- Ki [16]: 0.126 µM (active)
- Ki [17]: 5.01 µM (active)
- Ki [18]: 0.0316 µM (active)
- Ki [19]: 1.26 µM (active)
